Data on two compounds can be found in publication PMC3762675 (Chembiochem : a European journal of chemical biology, 2013).

The target of this assay is p38 and MK2 (Homo sapiens, UniProt Q16539). The class given is binding. The settings on record: competitor 10 μM, LTR 2 500 nM, p38 400 nM, MK2 400 nM, UV 30 min.
Chain of p38 and MK2 (Q16539 whole entry): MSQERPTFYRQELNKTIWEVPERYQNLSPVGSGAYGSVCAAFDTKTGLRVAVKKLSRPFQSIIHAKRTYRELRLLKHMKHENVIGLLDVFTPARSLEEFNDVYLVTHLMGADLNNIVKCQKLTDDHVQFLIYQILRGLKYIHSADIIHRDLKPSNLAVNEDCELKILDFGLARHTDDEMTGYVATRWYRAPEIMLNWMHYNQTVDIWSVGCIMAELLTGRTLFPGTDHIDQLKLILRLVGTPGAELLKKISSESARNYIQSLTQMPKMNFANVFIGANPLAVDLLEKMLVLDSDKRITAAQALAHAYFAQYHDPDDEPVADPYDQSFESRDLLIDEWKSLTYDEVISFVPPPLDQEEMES
Chain of p38 and MK2 (P49137 whole entry partner): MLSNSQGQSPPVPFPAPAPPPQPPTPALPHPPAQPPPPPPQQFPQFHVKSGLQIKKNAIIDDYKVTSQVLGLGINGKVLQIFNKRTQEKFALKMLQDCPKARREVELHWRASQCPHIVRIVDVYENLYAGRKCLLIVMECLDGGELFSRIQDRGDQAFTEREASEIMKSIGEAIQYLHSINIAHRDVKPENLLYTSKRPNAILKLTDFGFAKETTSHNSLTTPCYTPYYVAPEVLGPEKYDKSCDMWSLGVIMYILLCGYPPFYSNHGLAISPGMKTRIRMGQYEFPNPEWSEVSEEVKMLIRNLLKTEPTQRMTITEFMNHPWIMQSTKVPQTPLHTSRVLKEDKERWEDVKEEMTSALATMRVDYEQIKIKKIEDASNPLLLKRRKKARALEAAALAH

`C#Cc1cccc(Nc2ncnc3cc(OCCOC)c(OCCOC)cc23)c1` [erlotinib]: the “blocking of labeling of p38 and MK2” value is reported as “do not block labeling”.
`Cc1nc(Nc2ncc(C(=O)Nc3c(C)cccc3Cl)s2)cc(N2CCN(CCO)CC2)n1` [dasatinib]: the “blocking of labeling of p38 and MK2” value is reported as “does not completely block labeling”.
